Entries after “also recorded” stand apart in the source; their conditions may differ. Where two headings read alike, the source gives them in different places.
Columns and labels:
[1] = Weight and tolerance of mice in the K/BxN serum RA model
Procedure: (§1) In brief, 8-week-old female C57BL6/J mice, weighing between 18-20 g on day 0 of the experiments, were divided into 4 group of 10 mice each: (i) a control group, in which the mice were treated with vehicle, i.e. a 0.9% NaCl solution (10 mL/kg), marked ‘Vehicle’; (ii) a group of mice treated with K/BxN serum (10 mL/kg), marked ‘KBxN’; (iii) a group of mice treated with K/BxN serum+dexamethasone (1 mg/kg), marked ‘KBxN+dexamethasone’; and (iv) a group of mice treated with K/BxN serum+NMN (185 mg/kg), marked ‘KBxN+NMN’.
(§2) The administration of this serum induced chronic joint inflammation in mice in order to mimic RA. […] Here, NMN was used in zwitterionic form. KBxN serum and NMN were administered intraperitoneally to the nice. Dexamethasone was administered subcutaneously.
(§3) The mice were treated for 9 days under the conditions set forth supra. Photos of the paws of the mice were taken on the 6th day of treatment. […] The clinical score and weight of the mice were measured daily. The clinical score was determined by measuring the thickness of each of the front and rear paws of the mice, and adding the associated score according to table 1 infra:
(§4) The statistical analysis of the results was carried out using two-factor ANOVA combined with the Dunnett multiple comparison test.

[2] = tested on: C57BL6/J mice treated with K/BxN serum (RA model); experiment: K/BxN serum-induced RA model in mice (clinical score, paw thickness, paw photographs); type: in vivo
Procedure: Here, NMN was used in zwitterionic form. […] Dexamethasone was administered subcutaneously.

[3] = in vivo
Procedure: as §1, §2, §3, §4

C[C@@H]1C[C@H]2[C@@H]3CCC4=CC(=O)C=C[C@]4(C)[C@@]3(F)[C@@H](O)C[C@]2(C)[C@@]1(O)C(=O)CO [dexamethasone]
paw appearance compared to mouse treated with vehicle (photographs) ([1]; day 6 of treatment, FIG. 4): much more slender than that of the mouse treated with vehicle
average weight of mice (weight loss) ([1]; relative to KBxN group, NMN 185 mg/kg intraperitoneally, dexamethasone 1 mg/kg subcutaneously, 9 days, FIG. 1): additional and significant weight loss

NC(=O)c1ccc[n+]([C@@H]2O[C@H](COP(=O)([O-])O)[C@@H](O)[C@H]2O)c1 [NMN, nicotinamide mononucleotide]
paw swelling (photographs of the paws) ([2]; day 6 of treatment, compared to mouse treated with K/BxN, FIG. 4): substantially reduces paw swelling
average paw thickness (ankle joint inflammation) ([2]; versus KBxN group, NMN 185 mg/kg intraperitoneally, dexamethasone 1 mg/kg subcutaneously, FIG. 3): significantly reduced ankle joint inflammation starting on day 5
average clinical score ([2]; versus KBxN group, NMN 185 mg/kg intraperitoneally, dexamethasone 1 mg/kg subcutaneously, measured daily, 9 days, FIG. 2): significant reduction in clinical score starting on day 5; also recorded: pronounced starting on day 8
paw appearance compared to mouse treated with vehicle (photographs) [3]: volume similar to that of the mouse treated with vehicle
tolerance ([1]; K/BxN serum-treated mice, NMN 185 mg/kg intraperitoneally, 9 days, FIG. 1): well tolerated

— patent publication US20240122957A1, “USE OF NICOTINAMIDE MONONUCLEOTIDE (NMN) FOR THE PREVENTION AND/OR TREATMENT OF RHEUMATOID ARTHRITIS, AND CORRESPONDING COMPOSITIONS” (NUVAMID SA, priority 2019, published 2024)
